Measurements: patent US20130012466A1 (priority 2006, published 2013)
Where two headings read alike, the source gives them in different places.

Columns and labels:
Hep3B = assay: Cytotoxicity assay (cell titer-glo and calcein AM), Hep3B; conditions: Hep 3B, % error in parentheses
Du145 = assay: Cytotoxicity assay (cell titer-glo and calcein AM), Du145; conditions: Du145, % error in parentheses
NCI-H460 = assay: Cytotoxicity assay (cell titer-glo and calcein AM), NCI-H460; conditions: NCI-H460, % error in parentheses
ADR-RES = assay: Cytotoxicity assay (cell titer-glo and calcein AM), ADR-RES; conditions: NCI/ADR RES, % error in parentheses
A549 = assay: Cytotoxicity assay (cell titer-glo and calcein AM), A549; conditions: A549, % error in parentheses
SF-268 = assay: Cytotoxicity assay (cell titer-glo and calcein AM), SF-268; conditions: SF-268, % error in parentheses
SK-OV-3 = assay: Cytotoxicity assay (cell titer-glo and calcein AM), SK-OV-3; conditions: SK-OV-3, % error in parentheses
MCF7 = assay: Cytotoxicity assay (cell titer-glo and calcein AM), MCF7
[1] = tested on: mouse mammary normal epithelial control cell line; assay: Cytotoxicity assay, normal control cell line
[2] = read-out: Cytotoxicity IC50, Hep 3B, CTG, CTG (cell titer-glo) readout
[3] = read-out: Cytotoxicity IC50, Hep 3B, calcein, calcein AM readout
[4] = read-out: Cytotoxicity IC50, Du145, CTG, CTG (cell titer-glo) readout
[5] = read-out: Cytotoxicity IC50, Du145, calcein, calcein AM readout
[6] = read-out: Cytotoxicity IC50, NCI-H460, CTG, CTG (cell titer-glo) readout
[7] = read-out: Cytotoxicity IC50, NCI-H460, calcein, calcein AM readout
[8] = read-out: Cytotoxicity IC50, NCI/ADR RES, CTG, CTG (cell titer-glo) readout
[9] = read-out: Cytotoxicity IC50, NCI/ADR RES, calcein, calcein AM readout
[10] = read-out: Cytotoxicity IC50, A549, CTG, CTG (cell titer-glo) readout
[11] = read-out: Cytotoxicity IC50, A549, calcein, calcein AM readout
[12] = read-out: Cytotoxicity IC50, SF-268, CTG, CTG (cell titer-glo) readout
[13] = read-out: Cytotoxicity IC50, SF-268, calcein, calcein AM readout
[14] = read-out: Cytotoxicity IC50, SK-OV-3, CTG, CTG (cell titer-glo) readout
[15] = read-out: Cytotoxicity IC50, SK-OV-3, calcein, calcein AM readout
[16] = read-out: Cytotoxicity IC50, MCF7, CTG, CTG (cell titer-glo) readout, % error in parentheses
[17] = read-out: Cytotoxicity IC50, MCF7, calcein, calcein AM readout, % error in parentheses
[18] = read-out: Cytotoxicity IC50, NmuMG, CTG, CTG (cell titer-glo) readout, % error in parentheses
[19] = read-out: Cytotoxicity IC50, NmuMG, calcein, calcein AM readout, % error in parentheses

Compound	IC50 (Hep3B; [2]) [µM]	IC50 (Hep3B; [3]) [µM]	IC50 (Du145; [4]) [µM]	IC50 (Du145; [5]) [µM]	IC50 (NCI-H460; [6]) [µM]	IC50 (NCI-H460; [7]) [µM]	IC50 (ADR-RES; [8]) [µM]	IC50 (ADR-RES; [9]) [µM]	IC50 (A549; [10]) [µM]	IC50 (A549; [11]) [µM]	IC50 (SF-268; [12]) [µM]	IC50 (SF-268; [13]) [µM]	IC50 (SK-OV-3; [14]) [µM]	IC50 (SK-OV-3; [15]) [µM]	IC50 (MCF7; [16]) [µM]	IC50 (MCF7; [17]) [µM]	IC50 [1, 18] [µM]	IC50 [1, 19] [µM]
COc1cc2c(c(OC)c1OC)-c1ccc(OC)c(=O)cc1[C@@H](NC(=O)CN(OC)[C@@H]1OC[C@@H](O)[C@H](O)[C@@H]1O)CC2 [Col1, D-lyxoside]	3.5	3.69	1.97	2	4.51	3.93	2.63	1.91	2.91	1.21	3.86	4	4	4	1.9	1.33	> 10	6.49
COc1cc2c(c(OC)c1OC)-c1ccc(OC)c(=O)cc1[C@@H](NC(=O)CN(OC)[C@@H]1O[C@H](C)[C@@H](O)[C@H](O)[C@H]1O)CC2 [Col2, 6-deoxy-D-glucoside]	> 10	> 10	> 10	> 7.79	7.24	5.42	> 10	> 10	8.78	7.94	8.43	> 10	9.86	> 10	4.86	4.77	> 10	> 10
COc1cc2c(c(OC)c1OC)-c1ccc(OC)c(=O)cc1[C@@H](NC(=O)CN(OC)[C@@H]1O[C@H](CO)[C@@H](O)C[C@H]1O)CC2 [Col3, 3-deoxy-D-glucoside]	5.16	4.07	> 10	6.56	8.37	1.96	> 10	> 10	9.91	> 10	5.32	8.42	4.42	4.21	3.25	> 10	> 10	> 10
COc1cc2c(c(OC)c1OC)-c1ccc(OC)c(=O)cc1[C@@H](NC(=O)CN(OC)[C@@H]1OC[C@@H](O)[C@H](O)[C@H]1O)CC2 [Col4, D-xyloside]	> 10	> 3.35	> 10	> 10	> 10	> 10	> 10	> 10	> 10	> 10	8.26	8.93	> 10	> 10	> 10	> 10	> 10	> 10
COc1cc2c(c(OC)c1OC)-c1ccc(OC)c(=O)cc1[C@@H](NC(=O)CN(OC)[C@@H]1OC[C@@H](O)[C@@H](O)[C@H]1O)CC2 [Col5, D-riboside]	9.86	6.52	> 10	6.78	5.06	5.76	4.84	5.06	> 10	> 10	5.01	4.59	> 10	> 10	2.84	2.88	> 10	> 10
COc1cc2c(c(OC)c1OC)-c1ccc(OC)c(=O)cc1C(NC(=O)CN(OC)C1OCC(O)C(O)C1O)CC2 [Col7, L-lyxoside]	4.89	4.74	> 10	4.73	7.08	5.69	> 10	> 10	> 10	9.76	4.97	4.9	> 10	5.04	2.65	3.99	> 10	> 10
COc1cc2c(c(OC)c1OC)-c1ccc(OC)c(=O)cc1[C@@H](NC(=O)CN(OC)[C@@H]1O[C@H](C)[C@H](O)[C@H](O)[C@H]1O)CC2 [Col9, D-fucoside]	> 10	> 10	> 10	> 9.14	> 10	> 10	> 10	> 10	> 10	> 10	> 10	> 10	> 10	> 7.83	> 9.96	> 8.75	> 10	> 10
COc1cc2c(c(OC)c1OC)-c1ccc(OC)c(=O)cc1C(NC(=O)CN(OC)C1OC(C)C(O)C(O)C1O)CC2 [Col14, L-fucoside]	> 10	> 10	> 10	> 10	9.03	> 10	> 10	> 10	> 10	> 10	5.28	9.89	> 10	> 10	4.95	> 10	> 10	> 10
COc1cc2c(c(OC)c1OC)-c1ccc(OC)c(=O)cc1[C@@H](NC(=O)CN(OC)[C@@H]1O[C@H](C(=O)O)[C@@H](O)[C@H](O)[C@H]1O)CC2 [Col15, D-glucuronoside]	3.28	3.44	1.27	1.64	1.08	0.96	1.66	1.54	2.21	3.92	1.17	1.02	1.07	2.88	0.99	4.41	> 5	> 5
COc1cc2c(c(OC)c1OC)-c1ccc(OC)c(=O)cc1C(NC(=O)CN(OC)C1OCC(O)C(O)C1O)CC2 [Col17, L-xyloside]	> 10	> 10	8.48	> 10	5.17	5.61	> 10	> 10	9.4	> 10	5.93	9.72	> 10	> 10	6.22	5.09	> 10	> 10
COc1cc2c(c(OC)c1OC)-c1ccc(OC)c(=O)cc1C(NC(=O)CN(OC)C1OCC(O)C(O)C1O)CC2 [Col20, D-arabinoside]	> 10	> 10	2.41	3.74	5.21	3.71	7.85	7.74	9.07	> 10	2.54	3.95	> 10	> 10	4.44	2.35	> 10	> 10
COc1cc2c(c(OC)c1OC)-c1ccc(OC)c(=O)cc1C(NC(=O)CN(OC)C1OCC(O)C(O)C1O)CC2 [Col22, L-riboside]	2.44	3.95	2.38	> 10	1.16	2	2.23	3.56	4.22	9.44	4.16	4.86	4.84	4.84	4.27	2.87	> 10	> 10
COc1cc2c(c(OC)c1OC)-c1ccc(OC)c(=O)cc1[C@@H](NC(C)=O)CC2 [Col]	> 10	9.38	> 10	4.67	–	–	> 10	6.32	–	–	> 10	> 10	> 10	–	–	–	–	–
COc1cccc2c1C(=O)c1c(O)c3c(c(O)c1C2=O)C[C@@](O)(C(=O)CO)C[C@@H]3O[C@H]1C[C@H](N)[C@H](O)[C@H](C)O1 [doxorubi]	0.519	0.268	0.842	0.339	–	–	0.57	–	–	–	0.249	0.385	0.394	0.621	–	–	–	–
